Columns and labels:
[1] = biological target: T1, FLT3 (Homo sapiens, UniProt P36888); assay: TR-FRET kinase activity assay, FLT3; assay type: biochemical; conditions: ATP at Km, 60 minutes
T1 sequence (P36888 27-993): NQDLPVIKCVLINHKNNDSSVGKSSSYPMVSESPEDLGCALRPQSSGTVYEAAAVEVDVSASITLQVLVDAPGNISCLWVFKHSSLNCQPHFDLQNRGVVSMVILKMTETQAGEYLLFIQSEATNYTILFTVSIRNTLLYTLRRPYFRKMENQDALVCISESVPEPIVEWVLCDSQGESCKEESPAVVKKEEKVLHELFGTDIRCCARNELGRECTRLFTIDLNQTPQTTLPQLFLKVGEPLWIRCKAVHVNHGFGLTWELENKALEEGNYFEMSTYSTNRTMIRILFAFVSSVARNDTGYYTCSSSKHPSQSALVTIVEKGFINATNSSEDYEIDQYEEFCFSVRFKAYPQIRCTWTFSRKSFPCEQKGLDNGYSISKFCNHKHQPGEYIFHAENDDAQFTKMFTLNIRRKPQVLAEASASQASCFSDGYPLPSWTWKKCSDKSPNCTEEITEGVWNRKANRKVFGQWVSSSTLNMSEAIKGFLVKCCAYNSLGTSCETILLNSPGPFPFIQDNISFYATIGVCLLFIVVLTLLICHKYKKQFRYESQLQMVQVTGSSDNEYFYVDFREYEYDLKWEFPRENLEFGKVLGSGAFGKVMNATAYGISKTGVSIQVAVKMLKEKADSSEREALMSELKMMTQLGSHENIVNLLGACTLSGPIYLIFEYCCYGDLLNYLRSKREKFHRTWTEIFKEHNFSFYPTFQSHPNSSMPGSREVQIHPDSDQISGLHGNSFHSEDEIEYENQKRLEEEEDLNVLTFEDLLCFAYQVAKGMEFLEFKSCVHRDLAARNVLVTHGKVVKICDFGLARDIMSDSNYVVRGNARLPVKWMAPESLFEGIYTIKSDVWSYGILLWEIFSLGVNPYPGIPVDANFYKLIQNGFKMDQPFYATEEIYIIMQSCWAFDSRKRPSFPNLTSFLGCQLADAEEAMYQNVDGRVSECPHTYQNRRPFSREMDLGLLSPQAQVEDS
How it was run: (§1)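 Compounds were tested against each kinase with ATP set at its own Km and a labelled tyrosine peptide substrate. Following one hour at room temperature in buffer containing 10 mM MgCl2 and 1 mM DTT, phosphorylated product was detected by Europium antibody TR-FRET after EDTA quench, and IC50 values were calculated.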

[2] = biological target: T2, MERTK (Homo sapiens, UniProt Q12866); assay: TR-FRET kinase activity assay, MERTK; assay type: biochemical; conditions: for IC50: TR-FRET activity assay, ATP at Km, 60 minutes, read-out: Mer IC50
T2 sequence (Q12866 21-999): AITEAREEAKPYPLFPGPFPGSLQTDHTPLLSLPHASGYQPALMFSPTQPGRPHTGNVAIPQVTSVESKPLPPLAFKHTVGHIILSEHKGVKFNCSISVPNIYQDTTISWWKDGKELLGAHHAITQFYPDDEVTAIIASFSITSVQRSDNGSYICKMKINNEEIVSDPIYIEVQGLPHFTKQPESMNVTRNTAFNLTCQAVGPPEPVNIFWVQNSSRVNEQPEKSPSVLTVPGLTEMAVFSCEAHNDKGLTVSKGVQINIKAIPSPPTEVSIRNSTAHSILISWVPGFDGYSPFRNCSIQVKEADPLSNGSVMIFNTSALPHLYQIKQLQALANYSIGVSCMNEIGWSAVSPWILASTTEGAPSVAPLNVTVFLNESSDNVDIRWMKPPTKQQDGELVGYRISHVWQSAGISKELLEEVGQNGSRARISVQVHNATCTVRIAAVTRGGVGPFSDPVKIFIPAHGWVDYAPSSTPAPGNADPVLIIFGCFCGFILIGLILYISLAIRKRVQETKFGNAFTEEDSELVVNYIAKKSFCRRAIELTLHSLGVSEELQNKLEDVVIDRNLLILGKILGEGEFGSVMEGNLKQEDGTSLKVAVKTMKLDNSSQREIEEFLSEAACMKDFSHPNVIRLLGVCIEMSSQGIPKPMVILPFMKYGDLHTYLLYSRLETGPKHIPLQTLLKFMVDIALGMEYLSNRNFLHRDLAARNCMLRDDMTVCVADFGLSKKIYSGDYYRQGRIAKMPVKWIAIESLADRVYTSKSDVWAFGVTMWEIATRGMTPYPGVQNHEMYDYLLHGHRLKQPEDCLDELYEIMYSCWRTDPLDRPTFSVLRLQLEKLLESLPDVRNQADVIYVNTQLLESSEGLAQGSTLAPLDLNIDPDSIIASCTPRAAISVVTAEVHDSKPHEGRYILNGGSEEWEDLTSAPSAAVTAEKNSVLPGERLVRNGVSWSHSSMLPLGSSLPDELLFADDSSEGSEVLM
How it was run: as §1

[3] = ratio of Mer to FLT3: FLT3 IC50/Mer IC50
[4] = ratio calculated as FLT3 IC50/Mer IC50

| Structure (SMILES) | IC50 [1] [nM] | IC50 [2] [nM] | FLT3/Mer ratio (FLT3 IC50/Mer IC50) [2, 3] | FLT3/Mer ratio (FLT3 IC50/Mer IC50) [2, 4] |
| --- | --- | --- | --- | --- |
| COC[C@H](C)Nc1ncc2c(-c3cnn(CC4CCOCC4)c3)cc([C@H]3CC[C@H](O)CC3)n2n1 [Compound 392] | ≤ 100 | ≤ 100 | +++ (“+++” represents a ratio of >100) |  |
| CC(COC(F)F)Nc1ncc2c(-c3cnn(C(C)(C)C(=O)N4CCOCC4)c3)cc(C3CCC(O)CC3)n2n1 (stereo not drawn) [Compound 393] | ≤ 100 | ≤ 100 | +++ (“+++” represents a ratio of >100) |  |
| COC[C@H](C)Nc1ncc2c(-c3cnn(C4CCN(C)C4=O)c3)cc([C@H]3CC[C@H](O)CC3)n2n1 (stereo partly drawn) [Compound 394, 3-(4-(7-((trans)-4-hydroxycyclohexyl)-2-(((S)-1-methoxypropan-2-yl)amino)pyrrolo[2,1-f][1,2,4]triazin-5-yl)-1H-pyrazol-1-yl)-1-methylpyrrolidin-2-one] | 100 to 1000 | ≤ 100 | +++ (“+++” represents a ratio of >100) |  |
| COC[C@H](C)Nc1ncc2c(-c3cnn(CC4CC(=O)N(C)C4)c3)cc([C@H]3CC[C@H](O)CC3)n2n1 (stereo partly drawn) [Compound 395] | 100 to 1000 | ≤ 100 | +++ (“+++” represents a ratio of >100) |  |
| COC[C@H](C)Nc1ncc2c(-c3cnn([C@@H]4CCN(C(C)=O)C4)c3)cc([C@H]3CC[C@H](O)CC3)n2n1 [Compound 396] | 100 to 1000 | ≤ 100 |  | +++ (“+++” represents a ratio of >100) |
| COC[C@H](C)Nc1ncc2c(-c3cnn([C@H]4CCN(C(C)=O)C4)c3)cc([C@H]3CC[C@H](O)CC3)n2n1 [Compound 397] | 100 to 1000 | ≤ 100 |  | +++ (“+++” represents a ratio of >100) |
| CNC(=O)c1cncc(-c2cc([C@H]3CC[C@H](O)CC3)n3nc(N[C@@H](C)COC(F)F)ncc23)c1 [Compound 398] | 1000 to 10000 | ≤ 100 |  | +++ (“+++” represents a ratio of >100) |
| CC1(Nc2ncc3c(-c4cnn(C5COC5)c4)cc(C4CCC(O)CC4)n3n2)COC1 (stereo not drawn) [Compound 399] | 100 to 1000 | ≤ 100 |  | +++ (“+++” represents a ratio of >100) |
| COC[C@H](C)Nc1ncc2c(-c3ccnc(O[C@H]4CCN(C)C4)c3)cc([C@H]3CC[C@H](O)CC3)n2n1 [Compound 400] | 100 to 1000 | ≤ 100 |  | +++ (“+++” represents a ratio of >100) |
| COC[C@H](C)Nc1ncc2c(-c3ccnc(O[C@@H]4CCNC4)c3)cc([C@H]3CC[C@H](O)CC3)n2n1 [Compound 401] | 100 to 1000 | ≤ 100 |  | +++ (“+++” represents a ratio of >100) |
| COC[C@H](C)Nc1ncc2c(-c3ccnc(O[C@@H]4CCN(C)C4)c3)cc([C@H]3CC[C@H](O)CC3)n2n1 [Compound 402] | 100 to 1000 | ≤ 100 |  | +++ (“+++” represents a ratio of >100) |
| COC[C@H](C)Nc1ncc2c(-c3ccnc(O[C@H]4CCCN(C)C4)c3)cc([C@H]3CC[C@H](O)CC3)n2n1 [Compound 403] | 100 to 1000 | ≤ 100 |  | +++ (“+++” represents a ratio of >100) |
| COC[C@H](C)Nc1ncc2c(-c3ccnc(O[C@@H]4CCCN(C)C4)c3)cc([C@H]3CC[C@H](O)CC3)n2n1 [Compound 404] | 100 to 1000 | ≤ 100 |  | +++ (“+++” represents a ratio of >100) |
| C[C@@H](COC(F)F)Nc1ncc2c(-c3ccnc(N4CCOCC4)c3)cc([C@H]3CC[C@H](O)CC3)n2n1 [Compound 405] | ≤ 100 | ≤ 100 |  | +++ (“+++” represents a ratio of >100) |
| COC[C@H](C)Nc1ncc2c(-c3cnn(C4COC4)c3)cc(C3CCC(=O)CC3)n2n1 [Compound 406] | 100 to 1000 | ≤ 100 |  | +++ (“+++” represents a ratio of >100) |
| CNC(=O)c1ncc(-c2cc([C@H]3CC[C@H](O)CC3)n3nc(N[C@@H](C)COC(F)F)ncc23)cn1 [Compound 407] | 100 to 1000 | ≤ 100 |  | +++ (“+++” represents a ratio of >100) |
| COC[C@H](C)Nc1ncc2c(-c3cnn(C4(C(=O)N5CCCC5)CC4)c3)cc([C@H]3CC[C@H](O)CC3)n2n1 [Compound 408] | 100 to 1000 | ≤ 100 |  | +++ (“+++” represents a ratio of >100) |
| CNC(=O)c1cc(-c2cc([C@H]3CC[C@H](O)CC3)n3nc(N[C@@H](C)COC(F)F)ncc23)ccn1 [Compound 411] | 100 to 1000 | ≤ 100 |  | +++ (“+++” represents a ratio of >100) |
| C[C@@H](CC(F)(F)F)Nc1ncc2c(C3=CCN(C(=O)OC(C)(C)C)CC3)cc([C@H]3CC[C@H](O)CC3)n2n1 [Compound 412] | ≤ 100 | ≤ 100 |  | +++ (“+++” represents a ratio of >100) |
| CC(=O)N1CCN(Cc2ccc(-c3cc([C@H]4CC[C@H](O)CC4)n4nc(N[C@@H](C)COC(F)F)ncc34)cc2)CC1 [Compound 413] | ≤ 100 | ≤ 100 |  | ++ (“++” represents a ratio of between 10 and 100) |
| COC[C@H](C)Nc1ncc2c(-c3cnn(C4(C(=O)N5CCOCC5)CC4)c3)cc([C@H]3CC[C@H](O)CC3)n2n1 [Compound 414] | 1000 to 10000 | ≤ 100 |  | +++ (“+++” represents a ratio of >100) |
| COC[C@H](C)Nc1ncc2c(-c3cnn(C4(C(=O)NC(C)C)CC4)c3)cc([C@H]3CC[C@H](O)CC3)n2n1 [Compound 415] | 1000 to 10000 | ≤ 100 |  | +++ (“+++” represents a ratio of >100) |
| COC[C@H](C)Nc1ncc2c(-c3ccnc(N[C@@H]4CCOC4)c3)cc([C@H]3CC[C@H](O)CC3)n2n1 [Compound 416] | 100 to 1000 | ≤ 100 |  | +++ (“+++” represents a ratio of >100) |
| COC[C@H](C)Nc1ncc2c(-c3ccnc(NC4CCOC4)c3)cc([C@H]3CC[C@H](O)CC3)n2n1 (stereo partly drawn) [Compound 418] | 100 to 1000 | ≤ 100 |  | +++ (“+++” represents a ratio of >100) |
| COC[C@H](C)Nc1ncc2c(-c3cnn(CS(C)(=O)=O)c3)cc([C@H]3CC[C@H](O)CC3)n2n1 [Compound 419] | 100 to 1000 | ≤ 100 |  | +++ (“+++” represents a ratio of >100) |
| COC[C@H](C)Nc1ncc2c(-c3cnn(CC4COC4)c3)cc([C@H]3CC[C@H](O)CC3)n2n1 [Compound 420] | 100 to 1000 | ≤ 100 |  | +++ (“+++” represents a ratio of >100) |
